According to US20080311126A1, “Antisense Oligonucleotides Directed to Ribonucleotide Reducatase R2 and Uses Thereof in Combination Therapies for the Treatment of Cancer” (Genesense Technologies, Inc, priority 2004, published 2008):
Oligonucleotides are written 5' to 3', each unit as a sugar letter and its base; * is a phosphorothioate linkage, no mark a phosphodiester; rarer units and linkages stand in square brackets, end groups in braces. Plain capitals give the bases only. d = 2'-deoxy (DNA)

Tests used:
Format in all cases: cell-based, human
A549 lung cell carcinoma = experiment: Relative colony forming efficiency (Example 17, Table 13); settings: averages of 2-8 determinations
How it was run: (§1)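 Phosphorothioate antisense oligonucleotides were delivered to tumour cell cultures with 2.5 μg DOTMA/DOPE (Lipofectin) over four hours, at 0.2 μM unless otherwise indicated. Surviving colonies were stained with methylene blue and scored. Values are % inhibition of colony formation relative to lipofectin-only controls.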

[1] = tested on: HepG2 hepatocellular carcinoma; experiment: as above; settings: averages of 2-8 determinations
How it was run: as §1

[2] = tested on: T-47D breast ductal carcinoma; experiment: as above; settings: averages of 2-8 determinations
How it was run: as §1

[3] = tested on: T24 bladder cell carcinoma; experiment: as above; settings: averages of 2-8 determinations
How it was run: as §1

[4] = tested on: MDA PaCa-2 pancreatic cell carcinoma; experiment: as above; settings: MIA PaCa-2 pancreatic cell carcinoma; averages of 2-8 determinations
How it was run: as §1

[5] = tested on: HCT116 colon cell carcinoma; experiment: as above; settings: averages of 2-8 determinations
How it was run: as §1

[6] = tested on: H596 lung adenosquamous carcinoma cells; experiment: as above; settings: averages of 2-8 determinations
How it was run: as §1

[7] = tested on: PC-3 prostrate cell adenocarcinoma; experiment: as above; settings: averages of 2-8 determinations
How it was run: as §1

[8] = tested on: MDA-MB-231 breast cell adenocarcinoma; experiment: as above; settings: averages of 2-8 determinations
How it was run: as §1

Hela S3 cells = experiment: Relative colony forming efficiency, lipofectin +/- oligonucleotide 4 hours; settings: Hela S3 cervix carcinoma cells; averages of 2-8 determinations
How it was run: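 Survival is given as percent of lipofectin-treated controls, scored as methylene blue-stained colonies after 7–10 days of regrowth. Beforehand, HeLa S3 cultures received a 4 h lipofectin-mediated pulse of oligonucleotide, normally at 0.2 μM.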

| Substance | Reduced relative colony forming efficiency, A549 (% inhibition of colony forming ability) (A549 lung cell carcinoma) [%] | Reduced relative colony forming efficiency, HepG2 (% inhibition of colony forming ability) [1] [%] | Reduced relative colony forming efficiency, T-47D (% inhibition of colony forming ability) [2] [%] | Reduced relative colony forming efficiency, T24 (% inhibition of colony forming ability) [3] [%] | Reduced relative colony forming efficiency, MIA PaCa-2 (% inhibition of colony forming ability) [4] [%] | Reduced relative colony forming efficiency, HCT116 (% inhibition of colony forming ability) [5] [%] | Reduced relative colony forming efficiency, 11596 (% inhibition of colony forming ability) [6] [%] | Reduced relative colony forming efficiency, PC-3 (% inhibition of colony forming ability) [7] [%] | Reduced relative colony forming efficiency, MDA-MB-231 (% inhibition of colony forming ability) [8] [%] | Reduced relative colony forming efficiency, Hela S3 (% inhibition of colony forming ability) (Hela S3 cells) [%] |
| --- | --- | --- | --- | --- | --- | --- | --- | --- | --- | --- |
| AGGACTGGTTGTGAGGTAGC (antisense dA*dG*dG*dA*dC*dT*dG*dG*dT*dT*dG*dT*dG*dA*dG*dG*dT*dA*dG*dC) [AS-II-1499-20] | 87.8 | 77.5 | 96.67 | 82.81 | 81.17 | 83.01 | 78.3 | 77.28 | 41.26 | 87.56 |
| AS-II-1560.20 (antisense dG*dT*dA*dA*dG*dT*dC*dA*dC*dA*dG*dC*dC*dA*dG*dC*dC*dA*dG*dG) | 84.19 | 73.63 | 86.6 | 32.49 | 33.3 | 85.81 | 71.16 | 78.37 | 46.15 | 82.16 |
| C*CCC*TCAC*TCC*AGC*AGC*CT*T (antisense dC*dCdCdC*dTdCdAdC*dTdCdC*dAdGdC*dAdGdC*dCdT*dT) [AS-II-109-20] | 15.14 | 18.08 | 20.63 | 24.89 | 54.24 | 6.76 | 7.28 | 61.51 | 22.38 | 46.83 |
| CCCAGGACACTACACAAGCC (antisense dC*dC*dC*dA*dG*dG*dA*dC*dA*dC*dT*dA*dC*dA*dC*dA*dA*dG*dC*dC) [AS-II-2026-20] | 88.81 | 94.54 | 93.41 | 95.46 | 87.65 | 81.47 | 84.16 | 95.29 | 77.1 | 83.79 |
| CCTGTCTTCTATCTGGCACC (antisense dC*dC*dT*dG*dT*dC*dT*dT*dC*dT*dA*dT*dC*dT*dG*dG*dC*dA*dC*dC) [AS-II-1989-20] | 83.9 | 80.7 | 90.83 | 77.43 | 70.22 | 78.47 | 56.33 | 77.38 | 54.9 | 61.41 |
| CGGAGGGAGAGCATAGTGGA (antisense dC*dG*dG*dA*dG*dG*dG*dA*dG*dA*dG*dC*dA*dT*dA*dG*dT*dG*dG*dA) [AS-II-189-20] | 76.57 | 57.86 | 96.63 | 18.57 | 70.52 | 86.78 | 26.15 | 73.12 | 39.86 | 76.67 |
| G*CG*AAG*CAG*AGC*GAG*CAGC*C (antisense dG*dCdG*dAdAdG*dCdAdG*dAdGdC*dGdAdG*dCdAdGdC*dC) [AS-II-163-20] | 37.13 | 18.64 | 9.81 | 5.49 | 9.88 | 29.05 | 32.08 | 7.14 | 22.73 | 45.8 |
| GCGAGCGGGACACGGAGGGA (antisense dG*dC*dG*dA*dG*dC*dG*dG*dG*dA*dC*dA*dC*dG*dG*dA*dG*dG*dG*dA) [AS-II-201-20] | 90.55 | 59.32 | 98.53 | 96.2 |  | 45.56 | 49.6 | 65.08 | 25.17 | 90.87 |
| TGCCTCCGACCCTTCCCA (antisense dT*dG*dC*dC*dT*dC*dC*dG*dA*dC*dC*dC*dT*dT*dC*dC*dC*dA) [AS-II-16-18] | 81.1 | 75.89 | 7.13 | 25.74 |  | 78.57 | 34.5 | 89.48 | 62.59 | 68.7 |
